Earlier results, collected in patent publication US11052154B2, “Ras protein degradation inducing molecule and pharmaceutical composition” (Tokyo University of Science Foundation, priority 2016, dated 2021).

Columns and labels:
β5i = β5i (Homo sapiens, UniProt P28062); conditions: Table 18, 20S immunoproteasome inhibitor; cited from earlier work
β2i = β2i (Homo sapiens, UniProt P40306); conditions: Table 18, 20S immunoproteasome inhibitor; cited from earlier work
[1] = target: T1, PAC-3 (molecule assembly factor) (Homo sapiens, UniProt Q9BT73); conditions: Table 17; cited from earlier work
T1 sequence (Q9BT73 1-122): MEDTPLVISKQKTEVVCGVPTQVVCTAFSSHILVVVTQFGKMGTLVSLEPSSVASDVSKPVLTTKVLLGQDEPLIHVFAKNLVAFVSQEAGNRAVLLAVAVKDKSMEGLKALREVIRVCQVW

COc1ccc(C[C@H](NC(=O)[C@H](C)NC(=O)CN2CCOCC2)C(=O)N[C@@H](Cc2ccccc2)C(=O)[C@@]2(C)CO2)cc1 [PR-957]
Others: immunoproteasome subunit inhibited (β5i) (β5i): β5i is inhibited

CCCC[C@@H](C=O)NC(=O)[C@H](CC(C)C)NC(=O)OCc1ccccc1 [IPSI-001]
Others: immunoproteasome subunit inhibited (β2i) (β2i): β2i is inhibited

CC(C)C(O)(CC1C(=O)/C(=C(\O)[C@H]2C3CCCC[C@H]3C=C[C@H]2C)C(=O)N1C)C(=O)O (stereo partly drawn) [JBIR-22]
Others: PAC-3 inhibition [1]: PAC-3 (molecule assembly factor) inhibition)
